{
  "source": "patent US20150343016A1",
  "about": "“CHEMICAL ENTITIES AND THERAPEUTIC USES THEREOF” (The Regents of the University of Colorado, a body corporate, priority 2010, published 2015)",
  "test_system": "H157 cells",
  "test": "MTT assay, Bouvardin with ionizing radiation, H157",
  "type": "cell-based, human",
  "method": "“Combination Index” computation. Combination Indices were calculated using CalcuSyn software (Biosoft), which uses the method of Chou and Talalay. This method first computes drug-induced effect using the Hill Equation: where E is the measured effect; C is the drug concentration; Emax is the full range of drug effect, usually at or near 100%; IC50 is the drug concentration producing the median effect of 50%; and n is the curve shape parameter describing the steepness of the concentration-effect relationship. The Chou and Talalay method then linearizes the Hill Equation by logarithmic transformation as: where fu is the fraction of cells left unaffected after drug exposure, fa is the fraction of cells affected by the exposure, C is the drug concentration used, Cm is the concentration to achieve the median effect, and n is the curve shape parameter. Cm and n are equivalent to IC50 and n, respectively, in the Hill Equation. The values of n (obtained from the slope), nlog(Cm) (obtained from the absolute value of the intercept), and, therefore, Cm are obtained by plotting log(fu−1−1) versus log(C). These numbers are then used to compute the Combination Index (CI) according to the formula: CI=(D)1/(Dx)1+(D)2/(Dx)2 (26). (Dx)1 and (Dx)2 are the doses required to achieve a given effect level for each treatment, i.e. a specified value of Fraction Affected or Fa. (D)1 and (D)2 are the doses of each treatment in a given combination which gives the same Fa.\nIn FIG. 16 MTT assays were used to determine the effect of Bouvardin in combination with IR. Cells were either treated with drug for 24 hr prior to irradiation (A and C, ‘pre-treatment’) or drug and radiation were applied on the same day (B and D, ‘same day treatment’). (A & B) Fraction of cells killed or otherwise eliminated (Fraction Affected) at different doses of Bouvardin and 0 or 2 Gy of IR. (C & D) Combination Index (CI) data from two experiments with pre-treatment protocol, to illustrate reproducibility. CIs below 1 indicate synergy.\nIn the absence of radiation, the drug has an IC50 (Fraction Affected, Fa=0.5) in the nM range ([…], ‘0 Gy’). Fraction Affected is determined by the formula, 1−(x/y), where x is the MTT signal for the experimental sample and y is the MTT signal for the un-treated control. For example, if the MTT signal in the experimental is 30% of the MTT signal in the control, fraction affected is 0.7. Radiation increased the Fa in a dose-dependent manner in the absence of drug. The addition of the drug further increased the Fa for each dose of radiation. This happened whether the drug was added 24 hr before irradiation (pre-treatment, FIGS. 16A,C) or concurrently (same day treatment, FIGS. 16B,D).\nThe efficiency of Bouvardin in increasing the effect of radiation on cancer cells is measured in terms of Combination Index (CI) as determined by CalcuSyn software according to the method of Chou and Talalay. This method is widely used in biomedical literature and it has been applied to combinations of antitumor drugs. CI values are calculated from Fa values for multiple drug and radiation doses such as those shown in FIGS. 16 A and B. CI computation takes into account the shape of the dose-response curve, the maximal effect, the intercept, and the IC50 values for drug at each dose of radiation and IC50 for radiation at each dose of drug. […]\nThe growth inhibitory effects of Bouvardin with ionizing radiation (IR) were evaluated using a modified tetrazolium salt (MTT) assay. […]",
  "note": "“Also recorded” adds a separate entry of the source.",
  "data": [
    {"smiles": "COc1ccc(C[C@H]2C(=O)N[C@H](C)C(=O)N(C)[C@@H]3C(=O)N(C)[C@@H](Cc4ccc(O)c(c4)Oc4ccc(cc4)[C@H]3O)C(=O)N[C@@H](C)C(=O)N[C@H](C)C(=O)N2C)cc1", "note": "(stereo in doubt) [Bouvardin, bouvardin]", "values": [
      {"measurement": "interaction with radiation in cell-based assays", "setting": "0.3 μM of drug", "value": "synergistically"},
      {"measurement": "interaction with radiation in cell-based assays", "setting": "0.6 μM of drug", "value": "additively/antagonistically"},
      {"measurement": "interaction of Bouvardin with radiation", "setting": "H157", "value": "synergy over a wide range of doses; also recorded: synergize"},
      {"measurement": "IC50 (Fraction Affected, Fa=0.5)", "setting": "H157, in the absence of radiation (0 Gy)", "value": "nM range"},
      {"measurement": "interaction of Bouvardin with radiation", "setting": "H157, listed as bouvardin", "value": "synergizes with ionizing radiation"}
    ]}
  ]
}
